From ChEMBL document CHEMBL4184222, “A multifaceted approach to identify non-specific enzyme inhibition: Application to Mycobacterium tuberculosis shikimate kinase” (Bioorg Med Chem Lett, 2018) come the findings set out here.

A short description of series [1]: Aggregation property of the compound in ammonium acetate buffer at pH 7.6 assessed as light scattering intensity counts at 30 uM in presence of Triton X-100 by dynamic light scattering method. Type of series: physicochemical. The note with it: pH 7.6, 30 µM.
Series [2] can be described thus: Aggregation property of the compound in water at pH 7 assessed as particle size at 3 uM in absence of Triton X-100 by dynamic light scattering method. Format: physicochemical. Particulars: buffer, pH 7, 3 µM; call rule not given here.
Series [3] can be described thus: Aggregation property of the compound in ammonium acetate buffer at pH 7.6 assessed as particle size at 10 uM in absence of Triton X-100 by dynamic light scattering method. Format: physicochemical. Particulars: pH 7.6, 10 µM.
A short description of series [4]: Aggregation property of the compound in ammonium acetate buffer at pH 7.6 assessed as light scattering intensity counts at 10 uM in absence of Triton X-100 by dynamic light scattering method. Format: physicochemical. Particulars: pH 7.6, 10 µM.
Series [5] can be described thus: Aggregation property of the compound in ammonium acetate buffer at pH 7.6 assessed as light scattering intensity counts at 3 uM in presence of Triton X-100 by dynamic light scattering method. Format: physicochemical. The note with it: pH 7.6, 3 µM.
A short description of series [6]: Aggregation property of the compound in water at pH 7 assessed as particle size at 10 uM in presence of Triton X-100 by dynamic light scattering method. Type of series: physicochemical. The note with it: buffer, pH 7, 10 µM.
A short description of series [7]: Inhibition of Mycobacterium tuberculosis shikimate kinase assessed as reduction in S3P production […] pre-incubated with 0.015 uM enzyme for 30 mins before ATP and shikimate substrate addition by LC-MS assay.
Series [8] concerns Mycobacterium tuberculosis. The series can be described thus: Inhibition of Mycobacterium tuberculosis shikimate kinase assessed as reduction in S3P production at 30 uM pre-incubated with 0.02 uM enzyme for 30 mins before ATP and shikimate substrate addition in presence of Triton X-100 by LC-MS assay.
Series [9] is described as follows: Aggregation property of the compound in ammonium acetate buffer at pH 7.6 assessed as light scattering intensity counts at 30 uM in absence of Triton X-100 by dynamic light scattering method. Type of series: physicochemical. Particulars: pH 7.6, 30 µM.
Series [10] is described as follows: Aggregation property of the compound in ammonium acetate buffer at pH 7.6 assessed as particle size at 10 uM in presence of Triton X-100 by dynamic light scattering method. Type of series: physicochemical. The note with it: pH 7.6, 10 µM.
Series [11] can be described thus: Aggregation property of the compound in ammonium acetate buffer at pH 7.6 assessed as light scattering intensity counts at 3 uM in absence of Triton X-100 by dynamic light scattering method. Format: physicochemical. Particulars: pH 7.6, 3 µM.
The nature of series [12]: Aggregation property of the compound in water at pH 7 assessed as particle size at 3 uM in presence of Triton X-100 by dynamic light scattering method. The note with it: buffer, pH 7, 3 µM. Type of series: physicochemical.
A short description of series [13]: Aggregation property of the compound in water at pH 7 assessed as light scattering intensity counts at 30 uM in absence of Triton X-100 by dynamic light scattering method. Format: physicochemical. The note with it: buffer, pH 7, 30 µM.
Series [14] in a line: Aggregation property of the compound in ammonium acetate buffer at pH 7.6 assessed as particle size at 3 uM in presence of Triton X-100 by dynamic light scattering method. Format: physicochemical. The note with it: pH 7.6, 3 µM.
In series [15] the test system is Mycobacterium tuberculosis. The series can be described thus: Inhibition of Mycobacterium tuberculosis shikimate kinase assessed as reduction in S3P production at 30 uM pre-incubated with 0.02 uM enzyme for 30 mins before ATP and shikimate substrate addition in absence of Triton X-100 by LC-MS assay.
The nature of series [16]: Aggregation property of the compound in water at pH 7 assessed as light scattering intensity counts at 10 uM in absence of Triton X-100 by dynamic light scattering method. Format: physicochemical. The note with it: buffer, pH 7, 10 µM.
Series [17] can be described thus: Aggregation property of the compound in water at pH 7 assessed as light scattering intensity counts at 3 uM in absence of Triton X-100 by dynamic light scattering method. Particulars: buffer, pH 7, 3 µM. Type of series: physicochemical.
Series [18] has as its system Mycobacterium tuberculosis. The series can be described thus: Inhibition of Mycobacterium tuberculosis shikimate kinase assessed as reduction in S3P production at 30 uM pre-incubated with 0.2 uM enzyme for 30 mins before ATP and shikimate substrate addition in absence of Triton X-100 by LC-MS assay.
Series [19] in a line: Aggregation property of the compound in ammonium acetate buffer at pH 7.6 assessed as particle size at 30 uM in presence of Triton X-100 by dynamic light scattering method. Type of series: physicochemical. The note with it: pH 7.6, 30 µM.
Series [20] can be described thus: Aggregation property of the compound in water at pH 7 assessed as light scattering intensity counts at 3 uM in presence of Triton X-100 by dynamic light scattering method. Format: physicochemical. The note with it: buffer, pH 7, 3 µM.
Series [21] is described as follows: Aggregation property of the compound in water at pH 7 assessed as particle size at 10 uM in absence of Triton X-100 by dynamic light scattering method. The note with it: buffer, pH 7, 10 µM. Type of series: physicochemical.
Series [22] in a line: Aggregation property of the compound in ammonium acetate buffer at pH 7.6 assessed as particle size at 30 uM in absence of Triton X-100 by dynamic light scattering method. The note with it: pH 7.6, 30 µM. Format: physicochemical.
Series [23] can be described thus: Aggregation property of the compound in ammonium acetate buffer at pH 7.6 assessed as light scattering intensity counts at 10 uM in presence of Triton X-100 by dynamic light scattering method. Type of series: physicochemical. Particulars: pH 7.6, 10 µM.
The nature of series [24]: Aggregation property of the compound in ammonium acetate buffer at pH 7.6 assessed as particle size at 3 uM in absence of Triton X-100 by dynamic light scattering method. Type of series: physicochemical. Particulars: pH 7.6, 3 µM.
Series [25] in a line: Aggregation property of the compound in water at pH 7 assessed as particle size at 30 uM in presence of Triton X-100 by dynamic light scattering method. Format: physicochemical. Particulars: buffer, pH 7, 30 µM.
Series [26] concerns Mycobacterium tuberculosis. Kind of series: Inhibition of Mycobacterium tuberculosis shikimate kinase assessed as reduction in S3P production at 30 uM pre-incubated with 0.2 uM enzyme for 30 mins before ATP and shikimate substrate addition in presence of Triton X-100 by LC-MS assay.
Series [27] in a line: Aggregation property of the compound in ammonium acetate buffer at pH 7.6 assessed as particle size at 30 uM in presence of Triton X-100 by transmission electron microscopy. Particulars: pH 7.6, 30 µM. Type of series: physicochemical.
The nature of series [28]: Aggregation property of the compound in water at pH 7 assessed as light scattering intensity counts at 30 uM in presence of Triton X-100 by dynamic light scattering method. Format: physicochemical. The note with it: buffer, pH 7, 30 µM.
The nature of series [29]: Aggregation property of the compound in water at pH 7 assessed as particle size at 30 uM in absence of Triton X-100 by dynamic light scattering method. Type of series: physicochemical. Particulars: buffer, pH 7, 30 µM.
Series [30] can be described thus: Aggregation property of the compound in water at pH 7 assessed as light scattering intensity counts at 10 uM in presence of Triton X-100 by dynamic light scattering method. Particulars: buffer, pH 7, 10 µM. Type of series: physicochemical.
Series [31] is described as follows: Aggregation property of the compound in ammonium acetate buffer at pH 7.6 assessed as particle size at 30 uM in absence of Triton X-100 by transmission electron microscopy. Type of series: physicochemical. The note with it: pH 7.6, 30 µM.
A short description of series [32]: Aggregation property of the compound in water at pH 7 assessed as particle size at 100 uM in absence of Triton X-100 by dynamic light scattering method. Type of series: physicochemical. Particulars: buffer, pH 7, 100 µM.
The nature of series [33]: Aggregation property of the compound in water at pH 7 assessed as light scattering intensity counts at 100 uM in absence of Triton X-100 by dynamic light scattering method. Particulars: buffer, pH 7, 100 µM. Type of series: physicochemical.
Series [34] relates to Mycobacterium tuberculosis. The series can be described thus: Antimycobacterial activity against Mycobacterium tuberculosis H37Rv. Type of series: functional.
The nature of series [35]: Aggregation property of the compound in potassium phosphate buffer at pH 7.2 assessed as micelle formation by measuring peal broadening at 6.25 to 200 uM by one-dimensional 1H-NMR spectroscopy. Type of series: physicochemical. Particulars: pH 7.2, 200 µM.
Series [36] in a line: Aggregation property of the compound in ammonium acetate buffer at pH 7.6 assessed as particle size at 100 uM in presence of Triton X-100 by dynamic light scattering method. Format: physicochemical. Particulars: pH 7.6, 100 µM.
Series [37] is described as follows: Aggregation property of the compound in ammonium acetate buffer at pH 7.6 assessed as particle size at 100 uM in absence of Triton X-100 by dynamic light scattering method. The note with it: pH 7.6, 100 µM. Format: physicochemical.
Series [38] has as its system Mycobacterium tuberculosis. Kind of series: Inhibition of Mycobacterium tuberculosis shikimate kinase assessed as reduction in S3P production at <50 uM pre-incubated for 30 mins before ATP and shikimate substrate addition by LC-MS assay.
Series [39] is described as follows: Aggregation property of the compound in water at pH 7 assessed as light scattering intensity counts at 100 uM in presence of Triton X-100 by dynamic light scattering method. Type of series: physicochemical. The note with it: buffer, pH 7, 100 µM.
A short description of series [40]: Aggregation property of the compound in ammonium acetate buffer at pH 7.6 assessed as light scattering intensity counts at 100 uM in presence of Triton X-100 by dynamic light scattering method. Type of series: physicochemical. Particulars: pH 7.6, 100 µM.
A short description of series [41]: Inhibition of Mycobacterium tuberculosis shikimate kinase assessed as reduction in S3P production pre-incubated for 30 mins before ATP and shikimate substrate addition by LC-MS assay.
A short description of series [42]: Aggregation property of the compound in water at pH 7 assessed as particle size at 100 uM in presence of Triton X-100 by dynamic light scattering method. Type of series: physicochemical. Particulars: buffer, pH 7, 100 µM.
Series [43] can be described thus: Aggregation property of the compound in ammonium acetate buffer at pH 7.6 assessed as light scattering intensity counts at 100 uM in absence of Triton X-100 by dynamic light scattering method. Type of series: physicochemical. Particulars: pH 7.6, 100 µM.
A short description of series [44]: Aggregation property of the compound in potassium phosphate buffer at pH 7.2 assessed as micelle formation by measuring peal broadening at 12.5 to 200 uM by one-dimensional 1H-NMR spectroscopy. Particulars: pH 7.2, 200 µM. Format: physicochemical.

Molecules are shown by their SMILES. In brackets after ≈: the same amount, converted by molar mass. Where only a bound is given, the exact number is not on record here.

As usually defined, the IC50 is the concentration needed to halve the response being measured. One may read the inhibition as the percentage by which the read-out fell short of the control. `COc1cc(C=O)ccc1OCc1ccccc1COc1ccc(/C=C2/SC(=S)NC2=O)cc1OC`: the Activity in series [1] was found to be 5 kCounts; in series [2], 0 nm; in series [3] it was 0 nm; in series [4], 4 kCounts; in [5], 0 kCounts; in [6] it was 0 nm. The Activity in series [9] came out at 30 kCounts; in series [10] it was 0 nm; in series [11], 0 Counts; in [12], 0 nm; in [13] it was 30 kCounts; in series [14] it was 0 nm. The Activity in [16] stood at 2 kCounts; in series [17], 0 kCounts; in series [19] it was 0 nm; in series [20], 0 kCounts; in [21] it was 0 nm; in series [22], 80 nm. The Activity stood at 4 kCounts in series [23]; 0 nm in series [24]; 0 nm in [25]; 5 nm in series [27]; 5 kCounts in [28]; 80 nm in series [29]. Further, the Activity in [30] worked out at 2 kCounts; in series [31], 100 nm. Further, in series [7], the IC50 is 10.1 µM. Besides, the inhibition in series [8] came out at 98%; in series [15], 96%; in series [18], 55%; in series [26] it was 83%.
As usually defined, the IC90 is the point of the concentration-response curve where the effect stands at 90%. A higher IC90 goes with a need for much substance. In the case of `CCSc1ccc(C(=O)Nc2nnc(-c3ccco3)o2)cc1`, the Activity is recorded as 1123 nm in [32]; 245 kCounts in series [33]; “Active” in series [35]; 185 nm in [36]; 1151 nm in [37]; 85 kCounts in series [39]. The Activity in series [40] was determined as 100 kCounts; in series [42], 182 nm; in [43] it was 250 kCounts. Further, the IC90 in series [34] was 0.71 µg/mL (≈ 2.25 µM). Further, the inhibition in [38] is greater than 90%. Besides, the IC50 in series [41] was 20.7 µM.
As to `Nc1nc2ccc(OC(F)(F)F)cc2s1` [RILUZOLE], the Activity entry in series [44] is reported as “Not Active”.
